Source: ChEMBL document CHEMBL5625251, “Anti-influenza virus activities and mechanism of antrafenine analogs” (Eur J Med Chem, 2023)
Calls of active or inactive are those of the source. The rule behind the calls is not given here.

Columns and labels:
[1] = Cytotoxicity against MDCK cells assessed as reduction in cell viability incubated for 48 hrs by MTT assay; format: toxicity, cell-based, Canis lupus familiaris; settings: dog
Influenza A virus [2] = test: Antiviral activity against Influenza A virus A/WSN/33(H1N1) infected in MDCK cells assessed as inhibition of viral growth 12.5 uM pre-infected for 1 hr followed by compound addition and measured 24 hrs post infection by plaque assay relative to control; format: functional; settings: for inhibition: time 23.0 hrs
Influenza A virus [3] = test: Antiviral activity against Influenza A virus A/WSN/33(H1N1) infected in MDCK cells assessed as inhibition of viral growth at 6.25 uM pre-infected for 1 hr followed by compound addition and measured 24 hrs post infection by plaque assay relative to control; format: functional; settings: time 23 hrs
Influenza A virus [4] = test: Antiviral activity against Influenza A virus A/WSN/33(H1N1) infected in MDCK cells MOI 0.1 assessed as reduction in viral titre at 100 uM pre-infected with cells for 6 hrs followed by compound addition and measured after 2 hrs post infection by time of addition assay; format: functional, organism-based
Influenza A virus [5] = test: Antiviral activity against Influenza A virus A/WSN/33(H1N1) infected in chicken erythrocytes assessed as reduction in Haemagglutinin level preincubated for 30 mins followed by viral infection and measured after 40 mins; format: functional, organism-based; settings: Erythrocyte, time 70.0 min
[6] = Selectivity index, ratio of CC50 for cytotoxicity against MDCK cells assessed as reduction in cell viability to IC50 for antiviral activity against Influenza A virus A/PR/8/34 infected in MDCK cells MOI 0.01 assessed as inhibition of viral growth; format: toxicity, cell-based; settings: dog, read-out: Ratio CC50/IC50
Influenza A virus [7] = test: Antiviral activity against Influenza A virus A/WSN/33(H1N1) infected in chicken erythrocytes assessed as reduction in neuraminidase level incubated for 2 hrs; format: functional, organism-based; settings: Erythrocyte
Influenza A virus [8] = test: Antiviral activity against Influenza A virus A/PR/8/34 infected in MDCK cells MOI 0.01 assessed as inhibition of viral growth pre-infected for 1 hr followed by compound addition and measured 24 hrs post infection by plaque assay; format: functional, organism-based; settings: A/PR/8/34, MDCK
[9] = Selectivity index, ratio of CC50 for cytotoxicity against MDCK cells assessed as reduction in cell viability to IC50 for antiviral activity against Influenza A virus B/Florida/4/06 infected in MDCK cells MOI 0.01 assessed as inhibition of viral growth; format: toxicity, cell-based; settings: dog, read-out: Ratio CC50/IC50
Influenza A virus [10] = test: Antiviral activity against Influenza A virus A/WSN/33(H1N1) infected in MDCK cells MOI 0.1 assessed as reduction in viral titre at 100 uM pre-infected with cells for 6 hrs followed by compound addition and measured after 2 to 4 hrs post infection by time of addition assay; format: functional, organism-based
Influenza A virus [11] = test: Antiviral activity against Influenza A virus A/HK/1/68 infected in MDCK cells MOI 0.01 assessed as inhibition of viral growth pre-infected for 1 hr followed by compound addition and measured 24 hrs post infection by plaque assay; format: functional, organism-based; settings: A/HK/1/68, MDCK
[12] = Selectivity index, ratio of CC50 for cytotoxicity against African green monkey Vero cells assessed as reduction in cell viability to IC50 for inhibition of Influenza A virus A/WSN/33(H1N1) Ribonucleoprotein transfected in Vero cells; format: toxicity, cell-based; settings: read-out: Ratio CC50/IC50
Influenza A virus [13] = test: Antiviral activity against Influenza A virus A/WSN/33(H1N1) infected in MDCK cells assessed as inhibition of viral growth pre-infected for 1 hr followed by compound addition and measured 24 hrs post infection by plaque assay; format: functional, organism-based
Influenza A virus [14] = test: Antiviral activity against Influenza A virus B/Florida/4/06 infected in MDCK cells MOI 0.01 assessed as inhibition of viral growth pre-infected for 1 hr followed by compound addition and measured 24 hrs post infection by plaque assay; format: functional, organism-based; settings: B/Florida/4/06, MDCK
[15] = Selectivity index, ratio of CC50 for cytotoxicity against MDCK cells assessed as reduction in cell viability to IC50 for antiviral activity against Influenza A virus A/HK/1/68 infected in MDCK cells MOI 0.01 assessed as inhibition of viral growth; format: toxicity, cell-based; settings: dog, read-out: Ratio CC50/IC50
[16] = Cytotoxicity against African green monkey Vero cells assessed as reduction in cell viability incubated for 48 hrs by MTT assay; format: toxicity, cell-based; settings: chlorocebus sabaeus
[17] = Inhibition of Influenza A virus A/WSN/33(H1N1) Ribonucleoprotein transfected in Vero cells incubated for 48 hrs by spectrophotometer analysis; format: cell-based
Influenza A virus [18] = test: Antiviral activity against Influenza A virus A/WSN/33(H1N1) infected in MDCK cells assessed as inhibition of viral growth at 100 uM pre-infected for 1 hr followed by compound addition and measured 24 hrs post infection by plaque assay relative to control; format: functional; settings: time 23 hrs
Influenza A virus [19] = test: Antiviral activity against Influenza A virus A/WSN/33(H1N1) infected in MDCK cells MOI 0.1 assessed as reduction in viral titre at 100 uM pre-infected with cells for 6 hrs followed by compound addition and measured after 4 to 6 hrs post infection by time of addition assay; format: functional, organism-based
Influenza A virus [20] = test: Antiviral activity against Influenza A virus A/WSN/33(H1N1) infected in MDCK cells MOI 0.1 assessed as reduction in viral titre at 100 uM pre-infected with cells for 6 hrs followed by compound addition and measured after 6 to 8 hrs post infection by time of addition assay; format: functional, organism-based
[21] = Selectivity index, ratio of CC50 for cytotoxicity against MDCK cells assessed as reduction in cell viability to IC50 for antiviral activity against Influenza A virus A/WSN/33(H1N1) infected in MDCK cells assessed as inhibition of viral growth; format: toxicity, cell-based; settings: dog, read-out: Ratio CC50/IC50
Influenza A virus [22] = test: Antiviral activity against Influenza A virus A/WSN/33(H1N1) infected in MDCK cells assessed as reduction in virus-induced cytopathic effect at 25 uM pre-infected with cells for 1 hrs followed by compound addition and measured after 2 days by MTT assay; format: functional, organism-based; settings: time 2.0 day
Influenza A virus [23] = test: Antiviral activity against Influenza A virus A/WSN/33(H1N1) infected in MDCK cells assessed as inhibition of viral growth at 50 uM pre-infected for 1 hr followed by compound addition and measured 24 hrs post infection by plaque assay relative to control; format: functional; settings: time 23 hrs
MDCK = test: Cytotoxicity against MDCK cells assessed as reduction in cell viability at 12.5 uM incubated for 48 hrs by MTT assay; format: toxicity, cell-based, Canis lupus familiaris; settings: dog
Influenza A virus [24] = test: Antiviral activity against Influenza A virus A/WSN/33(H1N1) infected in MDCK cells assessed as reduction in virus-induced cytopathic effect at 100 uM pre-infected with cells for 1 hrs followed by compound addition and measured after 2 days by MTT assay; format: functional, organism-based; settings: time 2.0 day

Cc1ccc(N2CCN(CCNC(=O)c3ccccc3Nc3ccnc4ccc(Cl)cc34)CC2)c(C)c1
CC50 at 48 h [1]: 22.9 µM

O=C(NCC(=O)N1CCN(c2cccc(Cl)c2Cl)CC1)c1ccccc1Nc1ccnc2ccc(Cl)cc12
CC50 at 48 h [1]: > 50 µM
inhibition at 12.5 µM (Influenza A virus [2]; time 23 hrs): 24%

CCN(CC)CCCNC(=O)c1ccccc1Nc1ccnc2ccc(Cl)cc12
CC50 at 48 h [1]: 38 µM
inhibition at 6.25 µM (Influenza A virus [3]): 15.3%

O=C(Nc1cccc([N+](=O)[O-])c1)c1ccccc1Nc1ccnc2cc(C(F)(F)F)ccc12
Activity (Influenza A virus [4]): Active
Activity (Influenza A virus [5]): inactive
selectivity ratio [6]: > 18
Activity (Influenza A virus [7]): inactive
IC50 (Influenza A virus [8]): 5.5 µM
selectivity ratio [9]: > 8
Activity (Influenza A virus [10]): Active
IC50 (Influenza A virus [11]): 8.5 µM
selectivity ratio [12]: > 7
IC50 (Influenza A virus [13]): 5530 nM
CC50 at 48 h [1]: > 100 µM
IC50 (Influenza A virus [14]): 12 µM
selectivity ratio [15]: > 12
CC50 at 48 h [16]: > 100 µM
IC50 [17]: 14 µM
inhibition at 100 µM (Influenza A virus [18]): 99.8%
Activity (Influenza A virus [19]): Active
Activity (Influenza A virus [20]): inactive
selectivity ratio [21]: > 18
Activity (Influenza A virus [22]): Active

COC(=O)c1ccccc1Nc1ccnc2cc(C(F)(F)F)ccc12
CC50 at 48 h [1]: > 100 µM
inhibition at 100 µM (Influenza A virus [18]): 17.9%

NC(=O)c1ccccc1Nc1ccnc2cc(C(F)(F)F)ccc12
CC50 at 48 h [1]: > 100 µM

O=C(NCCCN1CCOCC1)c1ccccc1Nc1ccnc2cc(C(F)(F)F)ccc12
CC50 at 48 h [1]: > 100 µM
inhibition at 100 µM (Influenza A virus [18]): 99.9%

O=C(O)c1ccccc1Nc1ccnc2ccc(Cl)cc12
inhibition at 50 µM (Influenza A virus [23]): 3.5%
CC50 at 48 h [1]: > 100 µM

CN(C)CCNC(=O)c1ccccc1Nc1ccnc2ccc(Cl)cc12
CC50 at 48 h [1]: 19.9 µM

CCC(CC)O[C@@H]1C=C(C(=O)O)C[C@H](N)[C@H]1NC(C)=O [OSELTAMIVIR CARBOXYLATE]
IC50 (Influenza A virus [13]): 0.009 nM

CNC(=O)c1ccccc1Nc1ccnc2cc(C(F)(F)F)ccc12
CC50 at 48 h [1]: > 100 µM
inhibition at 100 µM (Influenza A virus [18]): 20%

O=C(Nc1cccc([N+](=O)[O-])c1)c1ccccc1Nc1ccnc2ccc(Cl)cc12
inhibition at 6.25 µM (Influenza A virus [3]): 21.4%
Activity (MDCK): Toxic

CN(C)CCNC(=O)c1ccccc1Nc1ccnc2cc(C(F)(F)F)ccc12
CC50 at 48 h [1]: 17.4 µM
inhibition (Influenza A virus [2]): inactive

O=C(NCCN1CCN(c2cccc(Cl)c2Cl)CC1)c1ccccc1Nc1ccnc2ccc(Cl)cc12
CC50 at 48 h [1]: > 50 µM

O=C(Nc1ccc(Br)cc1)c1ccccc1Nc1ccnc2cc(C(F)(F)F)ccc12
inhibition at 6.25 µM (Influenza A virus [3]): 74.5%
Activity (MDCK): Toxic

O=C(CNC(=O)c1ccccc1Nc1ccnc2cc(C(F)(F)F)ccc12)NCc1ccccc1
CC50 at 48 h [1]: > 100 µM

O=C(c1ccccc1Nc1ccnc2cc(C(F)(F)F)ccc12)N1CCOCC1
CC50 at 48 h [1]: > 100 µM

CCOC(=O)c1ccccc1Nc1ccnc2cc(C(F)(F)F)ccc12
CC50 at 48 h [1]: > 100 µM
inhibition at 100 µM (Influenza A virus [18]): 9.09%

NC(=O)c1ccccc1Nc1ccnc2ccc(Cl)cc12
CC50 at 48 h [1]: > 100 µM
inhibition at 100 µM (Influenza A virus [18]): 22.5%

O=C(NCCN1CCN(c2ccccc2OC(F)(F)F)CC1)c1ccccc1Nc1ccnc2cc(C(F)(F)F)ccc12
CC50 at 48 h [1]: > 100 µM

O=C(NCCN1CCN(c2ccccc2)CC1)c1ccccc1Nc1ccnc2ccc(Cl)cc12
Activity (Influenza A virus [24]): Active
CC50 at 48 h [1]: > 100 µM
inhibition (Influenza A virus [2]): inactive
